This passage reports Kd results from BindingDB's records for doi:10.1016/j.bmcl.2018.04.050 (Abbvie, 2018).

pKd: −log10 of the molar value.

A short description of assay [1]: Binding affinity to thrombin cleavable N-terminal 6His tagged and 13C-IVLM labeled human KDM4A tandem TUDOR domain (897 to 1011 residues) expressed in Escherichia coli BL21(DE3)-T1R assessed as apparent Kd for H3(1-10)K4me3 peptide at 1 mM by ITC method (Rvb = 5.2 +/- 0.3 uM).
A short description of assay [2]: Binding affinity to thrombin cleavable N-terminal 6His tagged and 13C-IVLM labeled human KDM4A tandem TUDOR domain (897 to 1011 residues) expressed in Escherichia coli BL21(DE3)-T1R assessed as apparent Kd for H3(1-10)K4me3 peptide at 0.5 mM by ITC method (Rvb = 5.2 +/- 0.3 uM). For orientation: In ITC the heat of successive injections is recorded.
Assay [3] in a line: Binding affinity to thrombin cleavable N-terminal 6His tagged and 13C-IVLM labeled human KDM4A tandem TUDOR domain (897 to 1011 residues) expressed in Escherichia coli BL21(DE3)-T1R assessed as apparent Kd for H3(1-10)K4me3 peptide at 2.5 mM by ITC method (Rvb = 5.2 +/- 0.3 uM).

`CN(C)C[C@H]1C2CCC(c3ccccc3)(C2)[C@H]1O` (stereo partly drawn): the negative logarithm of the Kd (pKd) (usually −log10 of the Kd, conventionally taken in molar units) in assay [1] was 4.64; in assay [2], 4.81; in assay [3], 4.26.
